# Measured values from the supplement of paper PMC10307832.
# Compound: C=CCn1c(=O)c2cnc(Nc3ccc(N4CCN(C)CC4)cc3)nc2n1-c1cccc(C(C)(C)O)n1 [Adavosertib] + CC(=O)c1c(C)c2cnc(Nc3ccc(N4CCNCC4)cn3)nc2n(C2CCCC2)c1=O [Palbociclib] (partner 0.5 µM)
# Experiment: relative viability (nuclei count vs DMSO), 5 days (fraction); higher = more cells survive
# Conditions: first compound 0.3162 µM
# Outline: (§1)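 Lung cancer cell lines were pin-tool dosed in 1536-well plates on the day after seeding, with either a lone drug or a fixed anchor-drug dose plus five library-drug doses (not always all listed) in √10 steps. Nuclei were counted on 4× images after 5 days. Relative viability is the ratio of treated-well to vehicle-well nuclei counts, with each value a median of duplicate plates.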
row,Cell Line,relative viability
1,NCI-H2023,0.202
2,NCI-H2085,0.577
3,NCI-H2087,0.243
4,NCI-H2126,0.35
5,NCI-H2170,0.36
6,NCI-H2228,0.545
7,NCI-H2342,0.566
8,NCI-H2347,0.44
9,NCI-H2405,0.58
10,NCI-H3122,0.213
11,PC-3 [JPC-3],0.544
12,PC-14,0.0749
13,RERF-LC-KJ,1.03
14,SK-LU-1,0.342

# Compound: C=CCn1c(=O)c2cnc(Nc3ccc(N4CCN(C)CC4)cc3)nc2n1-c1cccc(C(C)(C)O)n1 [Adavosertib] + COc1cccc2cc(-c3nc([C@H]4CC[C@H](C(=O)O)CC4)n4ncnc(N)c34)[nH]c12 [OSI-027] (partner 0.5 µM)
# Experiment: as above
# Conditions: first compound 0.01 µM
# Outline: as §1
row,Cell Line,relative viability
1,NCI-H727,0.599
2,NCI-H838,0.425
3,NCI-H1355,0.396
4,NCI-H1395,0.69
5,NCI-H1437,0.931
6,NCI-H1650,0.447
7,NCI-H1651,0.577
8,NCI-H1666,0.797
9,NCI-H1734,0.608
10,NCI-H1755,0.662
11,NCI-H1793,0.282
12,NCI-H1915,0.677
13,NCI-H1944,0.378
14,NCI-H1975,0.733
15,NCI-H1993,0.559
16,NCI-H2009,0.698
17,NCI-H2023,0.465
18,NCI-H2085,0.857
19,NCI-H2087,0.591
20,NCI-H2126,0.569
21,NCI-H2170,0.703
22,NCI-H2228,0.509
23,NCI-H2342,0.575
24,NCI-H2347,0.515
25,NCI-H2405,0.668
26,NCI-H3122,0.972
27,PC-3 [JPC-3],0.805
28,PC-14,0.916
29,RERF-LC-KJ,0.561
30,SK-LU-1,0.394

# Same assay, conditions: first compound 0.03162 µM
row,Cell Line,relative viability
1,NCI-H727,0.546
2,NCI-H838,0.346
3,NCI-H1355,0.387
4,NCI-H1395,0.727
5,NCI-H1437,0.868
6,NCI-H1650,0.775
7,NCI-H1651,0.571
8,NCI-H1666,0.851
9,NCI-H1734,0.638
10,NCI-H1755,0.731
11,NCI-H1792,0.701
12,NCI-H1793,0.289
13,NCI-H1915,0.606
14,NCI-H1944,0.429
15,NCI-H1975,0.644
16,NCI-H1993,0.537

row,Cell Line,relative viability
1,NCI-H2009,0.644
2,NCI-H2023,0.35
3,NCI-H2085,0.808
4,NCI-H2087,0.685
5,NCI-H2126,0.697
6,NCI-H2170,0.786
7,NCI-H2228,0.651
8,NCI-H2342,0.566
9,NCI-H2347,0.414
10,NCI-H2405,0.667
11,NCI-H3122,0.914
12,PC-3 [JPC-3],0.743
13,PC-14,0.835
14,RERF-LC-KJ,0.512
15,SK-LU-1,0.324

# Same assay, conditions: first compound 0.1 µM
row,Cell Line,relative viability
1,NCI-H727,0.523
2,NCI-H838,0.391
3,NCI-H1355,0.364
4,NCI-H1395,0.656
5,NCI-H1437,0.973
6,NCI-H1650,0.563
7,NCI-H1651,0.781
8,NCI-H1666,0.847
9,NCI-H1734,0.604
10,NCI-H1755,0.754
11,NCI-H1792,1.12
12,NCI-H1793,0.26
13,NCI-H1915,0.69
14,NCI-H1944,0.394
15,NCI-H1975,0.606
16,NCI-H1993,0.638

row,Cell Line,relative viability
1,NCI-H2009,0.651
2,NCI-H2023,0.304
3,NCI-H2085,0.689
4,NCI-H2087,0.603
5,NCI-H2126,0.769
6,NCI-H2170,0.632
7,NCI-H2228,0.618
8,NCI-H2342,0.676
9,NCI-H2347,0.473
10,NCI-H2405,0.669
11,NCI-H3122,1.07
12,PC-3 [JPC-3],0.775
13,PC-14,0.846
14,RERF-LC-KJ,0.555
15,SK-LU-1,0.296

# Same assay, conditions: first compound 0.3162 µM
row,Cell Line,relative viability
1,NCI-H727,0.575
2,NCI-H838,0.388
3,NCI-H1355,0.355
4,NCI-H1395,0.492
5,NCI-H1437,0.788
6,NCI-H1650,0.384
7,NCI-H1651,0.539
8,NCI-H1666,0.744
9,NCI-H1734,0.377
10,NCI-H1755,0.666
11,NCI-H1792,0.751
12,NCI-H1793,0.277
13,NCI-H1915,0.586
14,NCI-H1944,0.402
15,NCI-H1975,0.493
16,NCI-H1993,0.573

row,Cell Line,relative viability
1,NCI-H2009,0.366
2,NCI-H2023,0.203
3,NCI-H2085,0.87
4,NCI-H2087,0.478
5,NCI-H2126,0.727
6,NCI-H2170,0.597
7,NCI-H2228,0.142
8,NCI-H2342,0.616
9,NCI-H2347,0.298
10,NCI-H2405,0.628
11,NCI-H3122,1.06
12,PC-3 [JPC-3],0.731
13,PC-14,0.114
14,RERF-LC-KJ,0.465
15,SK-LU-1,0.182

# Compound: C=CCn1c(=O)c2cnc(Nc3ccc(N4CCN(C)CC4)cc3)nc2n1-c1cccc(C(C)(C)O)n1 [Adavosertib] + N=C(N)NC(=N)NCCc1ccccc1 [Phenformin] (partner 250 µM)
# Experiment: as above
# Conditions: first compound 0.01 µM
# Outline: as §1
row,Cell Line,relative viability
1,NCI-H727,0.543
2,NCI-H838,0.57
3,NCI-H1355,0.474
4,NCI-H1395,0.435
5,NCI-H1437,0.388
6,NCI-H1650,0.361
7,NCI-H1651,0.3
8,NCI-H1666,0.549
9,NCI-H1734,0.411
10,NCI-H1755,0.643
11,NCI-H1792,0.27
12,NCI-H1793,0.356
13,NCI-H1915,0.364
14,NCI-H1944,0.23
15,NCI-H1975,0.419
16,NCI-H1993,0.527

row,Cell Line,relative viability
1,NCI-H2009,0.486
2,NCI-H2023,0.437
3,NCI-H2085,0.668
4,NCI-H2087,0.456
5,NCI-H2126,0.525
6,NCI-H2170,0.444
7,NCI-H2228,0.252
8,NCI-H2342,0.569
9,NCI-H2347,0.306
10,NCI-H2405,0.458
11,NCI-H3122,0.365
12,PC-3 [JPC-3],0.458
13,PC-14,0.508
14,RERF-LC-KJ,0.363
15,SK-LU-1,0.57

# Same assay, conditions: first compound 0.03162 µM
row,Cell Line,relative viability
1,NCI-H727,0.593
2,NCI-H838,0.502
3,NCI-H1355,0.455
4,NCI-H1395,0.429
5,NCI-H1437,0.308
6,NCI-H1650,0.392
7,NCI-H1651,0.354
8,NCI-H1666,0.562
9,NCI-H1734,0.367
10,NCI-H1755,0.615
11,NCI-H1792,0.217
12,NCI-H1793,0.385
13,NCI-H1915,0.367
14,NCI-H1944,0.202
15,NCI-H1975,0.392
16,NCI-H1993,0.537

row,Cell Line,relative viability
1,NCI-H2009,0.551
2,NCI-H2023,0.389
3,NCI-H2085,0.757
4,NCI-H2087,0.442
5,NCI-H2126,0.538
6,NCI-H2170,0.404
7,NCI-H2228,0.27
8,NCI-H2342,0.587
9,NCI-H2347,0.496
10,NCI-H2405,0.414
11,NCI-H3122,0.402
12,PC-3 [JPC-3],0.46
13,PC-14,0.619
14,RERF-LC-KJ,0.381
15,SK-LU-1,0.484

# Same assay, conditions: first compound 0.1 µM
row,Cell Line,relative viability
1,NCI-H727,0.531
2,NCI-H838,0.525
3,NCI-H1355,0.426
4,NCI-H1395,0.421
5,NCI-H1437,0.275
6,NCI-H1650,0.445
7,NCI-H1651,0.31
8,NCI-H1666,0.636
9,NCI-H1734,0.374
10,NCI-H1755,0.613
11,NCI-H1793,0.414
12,NCI-H1915,0.388
13,NCI-H1944,0.19
14,NCI-H1975,0.389
15,NCI-H1993,0.475
16,NCI-H2009,0.496
17,NCI-H2023,0.358
18,NCI-H2085,0.784
19,NCI-H2087,0.525
20,NCI-H2126,0.531
21,NCI-H2170,0.407
22,NCI-H2228,0.257
23,NCI-H2342,0.571
24,NCI-H2347,0.5
25,NCI-H2405,0.405
26,NCI-H3122,0.355
27,PC-3 [JPC-3],0.498
28,PC-14,0.671
29,RERF-LC-KJ,0.4
30,SK-LU-1,0.458

# Same assay, conditions: first compound 0.3162 µM
row,Cell Line,relative viability
1,NCI-H727,0.565
2,NCI-H838,0.655
3,NCI-H1355,0.403
4,NCI-H1395,0.471
5,NCI-H1437,0.285
6,NCI-H1650,0.205
7,NCI-H1651,0.237
8,NCI-H1666,0.594
9,NCI-H1734,0.264
10,NCI-H1755,0.63
11,NCI-H1792,0.259
12,NCI-H1793,0.273
13,NCI-H1915,0.365
14,NCI-H1944,0.206
15,NCI-H1975,0.309
16,NCI-H1993,0.589

row,Cell Line,relative viability
1,NCI-H2009,0.427
2,NCI-H2023,0.193
3,NCI-H2085,0.761
4,NCI-H2087,0.461
5,NCI-H2126,0.568
6,NCI-H2170,0.441
7,NCI-H2228,0.243
8,NCI-H2342,0.572
9,NCI-H2347,0.411
10,NCI-H2405,0.396
11,NCI-H3122,0.365
12,PC-3 [JPC-3],0.488
13,PC-14,0.291
14,RERF-LC-KJ,0.439
15,SK-LU-1,0.223
